From ChEMBL document CHEMBL1201862, “PubChem BioAssay data set” (2004)
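These data come from cells grown in 96-well plates and exposed to compound for 48 hours at five concentrations. At the GI50, growth is halved.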 Activity calls are given as the source filed them. No stated cut-off is given here; in the data, active = GI50 up to about 1.1 µM and inactive = higher.

Experiments:
Test in all cases: NCI-60 cell line screen, 48 h
MDA-MB-435 = system: MDA-MB-435
TK-10 = system: TK-10
OVCAR-8 = system: OVCAR-8
SF-539 = system: SF-539
HT-29 = system: HT-29
SK-OV-3 = system: SK-OV-3
K562 = system: K562
MCF7 = system: MCF7
KM12 = system: KM12
NCI/ADR-RES = system: NCI/ADR-RES
OVCAR-5 = system: OVCAR-5
MOLT-4 = system: MOLT-4
Hs-578T = system: Hs-578T
UO-31 = system: UO-31
SNB-19 = system: SNB-19
SNB-75 = system: SNB-75
A498 = system: A498
M14 = system: M14
SN12C = system: SN12C
NCI-H522 = system: NCI-H522

Measured: GI50

COc1ccc(/C=C2\CCS(=O)(=O)c3ccccc3C2=O)cc1OC
inactive: MDA-MB-435 30.7 µM | TK-10 26.9 µM | OVCAR-8 19.1 µM | SF-539 25.6 µM | HT-29 36.7 µM | SK-OV-3 51.3 µM | K562 > 100 µM | MCF7 12.2 µM | KM12 28.4 µM | NCI/ADR-RES 28.8 µM | OVCAR-5 68.1 µM | MOLT-4 46.2 µM | Hs-578T 20.7 µM | UO-31 31 µM | SNB-19 42.8 µM | SNB-75 24.9 µM | A498 33.4 µM | M14 38.9 µM | SN12C 28.2 µM

CC1=COC(C)(C=C(C#N)C#N)CC1 (stereo not given)
inactive: MDA-MB-435 32.4 µM | TK-10 > 100 µM | OVCAR-8 52.6 µM | SF-539 25.1 µM | HT-29 > 100 µM | SK-OV-3 > 100 µM | K562 30.5 µM | MCF7 36.6 µM | KM12 34.8 µM | NCI/ADR-RES 48.4 µM | OVCAR-5 > 100 µM | MOLT-4 40.9 µM | Hs-578T 15.4 µM | UO-31 > 100 µM | SNB-19 > 100 µM | SNB-75 65.8 µM | A498 27 µM | M14 78.5 µM | SN12C 49.9 µM

N#C/C(C(=O)CCl)=C1\Nc2ccccc2O1
inactive: MDA-MB-435 3.24 µM | TK-10 7.01 µM | OVCAR-8 2.89 µM | SF-539 2.79 µM | HT-29 4.13 µM | SK-OV-3 12.1 µM | K562 3.24 µM | MCF7 2.56 µM | KM12 3.89 µM | NCI/ADR-RES 2.2 µM | MOLT-4 3.35 µM | Hs-578T 6.01 µM | UO-31 3.62 µM | SNB-19 7.98 µM | SNB-75 5.48 µM | A498 1.95 µM | M14 3.9 µM | SN12C 2.9 µM

CSC1=N/C(=C\c2cccs2)C(=O)N1CN1CCCCC1
inactive: MDA-MB-435 > 100 µM | TK-10 > 100 µM | OVCAR-8 51.3 µM | HT-29 25.1 µM | SK-OV-3 > 100 µM | K562 27.1 µM | MCF7 45.2 µM | KM12 50.2 µM | NCI/ADR-RES 50.9 µM | OVCAR-5 > 100 µM | MOLT-4 64.9 µM | Hs-578T 18.3 µM | UO-31 23.3 µM | SNB-75 31.9 µM | A498 > 100 µM | M14 > 100 µM | SN12C > 100 µM

N#CC1Cc2cc3c(cc21)OCO3 (stereo not given)
inactive: MDA-MB-435 > 100 µM | TK-10 > 100 µM | OVCAR-8 > 100 µM | SF-539 > 100 µM | HT-29 > 100 µM | K562 > 100 µM | MCF7 > 100 µM | KM12 > 100 µM | NCI/ADR-RES > 100 µM | OVCAR-5 > 100 µM | MOLT-4 > 100 µM | Hs-578T > 100 µM | UO-31 > 100 µM | SNB-19 > 100 µM | SNB-75 > 100 µM | A498 > 100 µM | M14 > 100 µM | SN12C > 100 µM

COc1ccc(N[S+]([O-])c2ccccc2OC)cc1 (stereo not given)
inactive: MDA-MB-435 7.53 µM | TK-10 > 100 µM | OVCAR-8 23.7 µM | SF-539 18.2 µM | HT-29 18.1 µM | K562 8.28 µM | MCF7 20.2 µM | KM12 4.98 µM | NCI-H522 5.26 µM | NCI/ADR-RES 15.9 µM | OVCAR-5 46.5 µM | MOLT-4 27 µM | Hs-578T 21.7 µM | UO-31 12.3 µM | SNB-19 36.2 µM | M14 33.3 µM | SN12C > 100 µM

[N-]=[N+]=C(C(=O)CN1CCCC1=O)S(=O)(=O)c1ccccc1
inactive: MDA-MB-435 > 100 µM | TK-10 > 100 µM | OVCAR-8 > 100 µM | SF-539 > 100 µM | HT-29 > 100 µM | K562 > 100 µM | MCF7 > 100 µM | KM12 > 100 µM | NCI-H522 > 100 µM | NCI/ADR-RES > 100 µM | OVCAR-5 > 100 µM | MOLT-4 > 100 µM | Hs-578T > 100 µM | UO-31 > 100 µM | SNB-19 > 100 µM | SNB-75 > 100 µM | M14 > 100 µM | SN12C > 100 µM

COc1cc([C@H]2CC(=O)C[C@@H](c3cc(OC)c(OC)c(OC)c3)C23C(=O)c2ccccc2C3=O)cc(OC)c1OC
inactive: MDA-MB-435 > 100 µM | TK-10 > 100 µM | OVCAR-8 > 100 µM | SF-539 > 100 µM | HT-29 > 100 µM | SK-OV-3 > 100 µM | K562 > 100 µM | MCF7 > 100 µM | KM12 > 100 µM | NCI-H522 > 100 µM | NCI/ADR-RES > 100 µM | OVCAR-5 > 100 µM | MOLT-4 > 100 µM | Hs-578T > 100 µM | UO-31 > 100 µM | SNB-19 > 100 µM | SNB-75 45.1 µM | M14 > 100 µM | SN12C > 100 µM

Cc1ccc(C2(c3ccc(C)cc3)SC(=C(C#N)C#N)c3ccccc32)cc1
inactive: MDA-MB-435 5.31 µM | TK-10 > 100 µM | OVCAR-8 > 100 µM | SF-539 > 100 µM | HT-29 55.6 µM | SK-OV-3 > 100 µM | K562 7.67 µM | MCF7 81.1 µM | KM12 23 µM | NCI/ADR-RES 45.6 µM | OVCAR-5 > 100 µM | MOLT-4 21.1 µM | Hs-578T > 100 µM | UO-31 > 100 µM | SNB-19 > 100 µM | A498 > 100 µM | M14 > 100 µM | SN12C > 100 µM

Cc1nc(Cl)nc(Cl)c1C
inactive: MDA-MB-435 > 100 µM | TK-10 > 100 µM | OVCAR-8 > 100 µM | SF-539 > 100 µM | HT-29 > 100 µM | SK-OV-3 > 100 µM | K562 > 100 µM | MCF7 > 100 µM | KM12 > 100 µM | NCI-H522 > 100 µM | NCI/ADR-RES > 100 µM | OVCAR-5 > 100 µM | MOLT-4 > 100 µM | Hs-578T > 100 µM | UO-31 > 100 µM | SNB-19 > 100 µM | SNB-75 > 100 µM | M14 > 100 µM | SN12C > 100 µM

C[C@@]1(Br)C[C@@](C)(Cl)[C@@H](Br)CC1/C=C/Cl (stereo not given in full)
inactive: MDA-MB-435 16.9 µM | TK-10 18.4 µM | OVCAR-8 16 µM | SF-539 15.2 µM | HT-29 16.1 µM | SK-OV-3 17.5 µM | K562 15.3 µM | MCF7 16.6 µM | KM12 16.1 µM | NCI/ADR-RES 13.1 µM | OVCAR-5 15.1 µM | MOLT-4 13.3 µM | Hs-578T 16.7 µM | UO-31 18.5 µM | SNB-19 18.6 µM | SNB-75 12.8 µM | M14 16.6 µM | SN12C 15 µM
